Patent publication US4845123A, “Reduction in vivo of the inappropriate levels of endogenous and environmental-derived compounds by sustained-release inhibitors of β- g” (priority 1985, dated 1989)
“Also recorded” adds a separate entry of the source.

Legend:
60 kd oncofetal protein [1] = assay: effect of β-glucuronidase inhibitors on carcinogen induction of the 60 kd factor in plasma (cell-free RNA transport assay); format: in vivo, rat; conditions: rat, in vivo
serum β-glucuronidase = molecular target: T1, serum β-glucuronidase (Rattus norvegicus, UniProt P06760); assay: in vivo; format: in vivo; conditions: rat, in vivo
T1 sequence (P06760 23-648): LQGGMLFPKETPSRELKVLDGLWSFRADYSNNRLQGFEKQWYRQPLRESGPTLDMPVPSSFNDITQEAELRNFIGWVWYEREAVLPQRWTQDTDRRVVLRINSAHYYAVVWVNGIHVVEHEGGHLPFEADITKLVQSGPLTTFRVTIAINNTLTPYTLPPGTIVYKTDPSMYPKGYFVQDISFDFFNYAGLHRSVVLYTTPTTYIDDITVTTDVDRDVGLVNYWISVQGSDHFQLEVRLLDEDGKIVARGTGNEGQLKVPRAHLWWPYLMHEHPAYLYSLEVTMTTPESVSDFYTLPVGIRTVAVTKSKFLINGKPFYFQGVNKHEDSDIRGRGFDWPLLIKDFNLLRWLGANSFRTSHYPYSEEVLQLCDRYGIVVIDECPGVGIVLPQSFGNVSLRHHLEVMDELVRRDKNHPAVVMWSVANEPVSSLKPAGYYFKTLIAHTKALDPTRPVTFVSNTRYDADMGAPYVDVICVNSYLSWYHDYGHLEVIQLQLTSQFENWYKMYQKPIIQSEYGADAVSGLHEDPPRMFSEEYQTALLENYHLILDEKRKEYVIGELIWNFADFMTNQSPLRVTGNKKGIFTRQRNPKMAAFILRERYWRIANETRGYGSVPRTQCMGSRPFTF
Procedure: GL was synthesized and microencapsulated to give sustained-release GL (EGL), by an established procedure used to microencapsulate ascorbic acid, as reported in Samejima, M. et al., Chem. Pharm. Bull., (Tokyo) 1982, 30:2894-2899. In this procedure, the GL as a fine powder is added to a stirred mixture of cyclohexane, polyisobutylene as coacervation-inducing agent and ethylcellulose as wall-forming material. The addition of GL is at 78° C., then phase separation is induced by lowering the temperature first to 40° C., then to 25° C. The microcapsules, which have thick walls, are washed with cyclohexane and dried. […] DAGDL, calcium D-glucarate (CGT), and potassium hydrogen D-glucarate (PGT) were synthesized. For comparison of efficacy of the inhibitors, 1,5 mmoles/kg (GL, EGL or DAGDL) or 4.5 mmoles/kg (CGT or PGT) of the inhibitor in 1.0 ml of sesame oil or vehicle only (controls) was administered to rats by stomach tube at zero time. Blood samples were obtained from different rats by cardiac puncture under ether anesthesia. The serum was prepared and assayed for β-glucuronidase activity using a commerical diagnostic kit sold by Sigma Chemical Company, St. Louis, MO. The assay is based on the hydrolysis of phenolphthalein-glucuronide and quantitation of phenolphthalein in alkaline medium at […]. For tests of anti-carcinogencity, the inhibitors were administered by stomach tube in 1.0 ml of sesame oil 30 minutes before and again at 2.5 hours after the carcinogen, for DAGDL, or 3 hours and 30 minutes before the carcinogen, for EGL, CGT, and PGT. The controls received sesame oil only by stomach tube.
At the time periods indicated above blood samples were obtained from rats under ether aneathesia by cardiac puncture, the serum was then prepared and assayed for β-glucuronidase activity using a commercial diagnostic kit sold by Sigma Chem. Co., St. Louis, MO.
For the inhibition of the initiation stage, CGT was given by gavage in two doses (4.5 mmoles/kg/dose) at 3 hours and again at 0.5 hours before carcinogen administration. […] The concentrations of CGT were incorporated into the powdered chow diet. The blood samples were obtained 10 days after the initiation of the CGT feeding.
DAGDL or GL (1.5 mmol/kg) in 1.0 ml of sesame oil, or vehicle only (controls) was administered to rats by stomach tube at zero time. […] The serum was prepared and assayed for β-glucuronidase activity using a commercial diagnostic kit sold by Sigma Chemical Company, St. Louis, MO. The assay is based on the hydrolysis of phenolphthalein-glucuronide and quantitation of phenolphtalein in alkaline medium at 550 nm.

60 kd oncofetal protein [2] = conditions: rat, in vivo; for Plasma concentration of the 60 kd protein at 21 days post-treatment with PAH: ip
bladder tumor = conditions: rat, in vivo; cited from earlier work
[3] = in vivo; cited from earlier work
bladder tumors = conditions: human, in vivo; cited from earlier work
β-glucuronidase = conditions: cited from earlier work
bladder cancer = conditions: dog, in vivo; cited from earlier work
[4] = equilibrated aqueous solution; cited from earlier work
[5] = rat, in vivo, iv, cited from earlier work

Compound: O=C(O)[C@@H](O)[C@@H](O)[C@H](O)[C@@H](O)C(=O)[O-].[K+] [PGT, potassium hydrogen D-glucarate]
- Percent Inhibition of the induction of the 60 kd factor (60 kd oncofetal protein [1]): 65%
- Treatment +I: total concentration of 60 kd factor (60 kd oncofetal protein [1]): 2.25
- time-course of serum β-glucuronidase inhibition (serum β-glucuronidase): prolonged inhibition

Compound: CCCCN(CCCC)N=O [N--Nitrosodibutylamine, N-nitroso-N,N-dibutylamine]
- Treatment -I: total concentration of 60 kd factor induced by the carcinogen (60 kd oncofetal protein [2]): 5.44

Compound: O=C(O)[C@@H](O)[C@H]1OC(=O)[C@H](O)[C@H]1O [GL, D-glucaro-1,4-lactone, reference compound]
- effect on 2-acetylaminofluorene carcinogenesis (bladder tumor): unsuccessful
- administered compound excreted unchanged in urine [3]: less than 50%
- rate of metabolism and excretion [3]: rapidly metabolized
- clinical effect in prevention of bladder tumors (bladder tumors): failed to show any clear beneficial effects
- inhibition of β-glucuronidase in vitro (β-glucuronidase): potent inhibitor
- prevention of bladder cancer induced with 2-naphthylamine (bladder cancer): without any success
- depression of serum β-glucuronidase (serum β-glucuronidase): approximately 50%
- reversibility of inhibition by prolonged dialysis (serum β-glucuronidase): could be reversed
- time-course of serum β-glucuronidase inhibition (serum β-glucuronidase): only a transient inhibition; also recorded: transient nature of the inhibition

Compound: c1ccc2cc3ccccc3cc2c1 [Anthracene]
- Plasma concentration of the 60 kd protein at 21 days post-treatment with PAH (60 kd oncofetal protein [2]): 0.0

Compound: c1ccc2c(c1)Cc1ccccc1-2 [Fluorene]
- Plasma concentration of the 60 kd protein at 21 days post-treatment with PAH (60 kd oncofetal protein [2]): 0.0 units

Compound: CCN(CC)N=O [N--Nitrosodiethylamine, N-nitroso-N, N-diethylamine]
- Treatment -I: total concentration of 60 kd factor induced by the carcinogen (60 kd oncofetal protein [2]): 4.21

Compound: CCN(N=O)C(N)=O [N--Nitrosoethylurea, N-nitroso-N-ethylurea]
- Treatment -I: total concentration of 60 kd factor induced by the carcinogen (60 kd oncofetal protein [2]): 4.50

Compound: O=C(O)[C@@H](O)[C@@H](O)[C@H](O)[C@@H](O)C(=O)O [glucarate]
- fraction of glucarate converted to GL [4]: approximately one-third

Compound: Nc1ccc2ccccc2c1 [2-Naphthylamine, 2-naphthylamine]
- Treatment -I: total concentration of 60 kd factor induced by the carcinogen (60 kd oncofetal protein [2]): 3.29

Compound: CC(=O)Nc1ccc2c(c1)Cc1ccccc1-2 [2-Acetyalaminofluorine, 2-acetylaminofluorene]
- Treatment -I: total concentration of 60 kd factor induced by the carcinogen (60 kd oncofetal protein [2]): 5.11

Compound: CN(C)N=O [N--Nitrosodimethylamine, N-nitroso-N,N-dimethylamine]
- Treatment -I: total concentration of 60 kd factor induced by the carcinogen (60 kd oncofetal protein [2]): 3.40

Compound: COc1cc2c(c3oc(=O)c4c(c13)CCOC4=O)[C@@H]1CCO[C@@H]1O2 [Aflatoxin G2, aflatoxin G2]
- Treatment -I: total concentration of 60 kd factor induced by the carcinogen (60 kd oncofetal protein [2]): 3.80

Compound: CNNC [1,2-Dimethylhydrazine, 1,2-dimethylhydrazine]
- Treatment -I: total concentration of 60 kd factor induced by the carcinogen (60 kd oncofetal protein [2]): 5.40

Compound: Cc1c2ccccc2c(C)c2c1ccc1ccc(F)cc12 [2-Fluoro-7,12-dimethylbenz[a]anthracene]
- Plasma concentration of the 60 kd protein at 21 days post-treatment with PAH (60 kd oncofetal protein [2]): 0.0

Compound: c1cc2ccc3cccc4ccc(c1)c2c34 [Pyrene]
- Plasma concentration of the 60 kd protein at 21 days post-treatment with PAH (60 kd oncofetal protein [2]): 0.0

Compound: CN(N=O)C(N)=O [N--Nitrosomethylurea, N-nitroso-N-methylurea]
- 60 kd factor in plasma, MNU without inhibitor (60 kd oncofetal protein [2]): 4.6
- Treatment -I: total concentration of 60 kd factor induced by the carcinogen (60 kd oncofetal protein [2]): 4.69

Compound: Cc1ccc2cc3c(ccc4ccccc43)c3c2c1CC3 [3-Methylcholanthrene, 3-methyl-1,2-dihydrobenz[j]aceanthrylene]
- Treatment -I: total concentration of 60 kd factor induced by the carcinogen (60 kd oncofetal protein [2]): 5.62
- Plasma concentration of the 60 kd protein at 21 days post-treatment with PAH (60 kd oncofetal protein [2]): 6.82
- overall inhibition of PAH-mediated carcinogenesis, as inhibition of 60 kd oncofetal protein induction (60 kd oncofetal protein [1]): 50%

Compound: c1ccc2cc3c(ccc4ccccc43)cc2c1 [Benz[a]anthracene]
- Plasma concentration of the 60 kd protein at 21 days post-treatment with PAH (60 kd oncofetal protein [2]): 4.92

Compound: Cc1c2ccccc2c(C)c2c1ccc1ccccc12 [7,12-Dimethylbenz[a]anthracene, 7,12-dimethylbenz[a]anthracene]
- Plasma concentration of the 60 kd protein at 21 days post-treatment with PAH (60 kd oncofetal protein [2]): 6.42
- overall inhibition of PAH-mediated carcinogenesis, as inhibition of 60 kd oncofetal protein induction (60 kd oncofetal protein [1]): 75%

Compound: c1ccc2c(c1)c1cccc3ccc4cccc2c4c31 [Benzo[e]pyrene]
- Plasma concentration of the 60 kd protein at 21 days post-treatment with PAH (60 kd oncofetal protein [2]): 3.37

Compound: COc1cc2c(c3oc(=O)c4c(c13)CCC4=O)[C@@H]1C=CO[C@@H]1O2 [Aflatoxin B1, aflatoxin B1]
- Treatment -I: total concentration of 60 kd factor induced by the carcinogen (60 kd oncofetal protein [2]): 4.37

Compound: C=CCc1ccc2c(c1)OCO2 [Safrole, safrole]
- Treatment -I: total concentration of 60 kd factor induced by the carcinogen (60 kd oncofetal protein [2]): 5.90

Compound: c1ccc2c(c1)cc1ccc3cccc4ccc2c1c34 [Benzo[a]pyrene]
- Treatment -I: total concentration of 60 kd factor induced by the carcinogen (60 kd oncofetal protein [2]): 7.73
- Plasma concentration of the 60 kd protein at 21 days post-treatment with PAH (60 kd oncofetal protein [2]): 7.73
- overall inhibition of PAH-mediated carcinogenesis, as inhibition of 60 kd oncofetal protein induction (60 kd oncofetal protein [1]): 75%
- dose excreted in bile ([5]; 6 h): ~60%
- biliary metabolites being glucuronides [5]: 40%

Compound: O=[N+]([O-])c1ccc2ccc3cccc4ccc1c2c34 [1-Nitropyrene, reference compound]
- Plasma concentration of the 60 kd protein at 21 days post-treatment with PAH (60 kd oncofetal protein [2]): 5.30 units
- overall inhibition of PAH-mediated carcinogenesis, as inhibition of 60 kd oncofetal protein induction (60 kd oncofetal protein [1]): 50%
